Assays:
Format in all cases: functional, cell-based
KB = assay: Cytotoxicity against human KB cells after 44 hrs by SRB assay
MCF7 = assay: Cytotoxicity against human MCF7 cells after 44 hrs by SRB assay; details: MCF7, 44 h
HeLa = assay: Cytotoxicity against human HeLa cells after 44 hrs by SRB assay
MKN-28 = assay: Cytotoxicity against human MKN28 cells after 44 hrs by SRB assay; details: MKN-28, 44 h

In the case of `CC(=O)O[C@H]1CC[C@@]2(C)C(=CC(=O)[C@H]3[C@@H]4CCC[C@@]4(C)CC[C@@H]32)C1`, the IC50 (KB) is reported as 62 µM, the IC50 (MCF7) is reported as 39.5 µM and the IC50 (HeLa) is reported as 34 µM. It also gave an IC50 (MKN-28) of 48.5 µM.
`CC(=O)O[C@H]1CC[C@@]2(C)C(=C/C(=N\O)[C@H]3[C@@H]4CCC[C@@]4(C)CC[C@@H]32)C1` was tested, and the IC50 (KB) was 26 µM, the IC50 (MCF7) was 10.2 µM and the IC50 (HeLa) was 12.8 µM. For the same compound, the IC50 (MKN-28) was 18.1 µM.
For `C[C@@]12CCC[C@H]1[C@@H]1C(=O)C=C3C=CCC[C@]3(C)[C@H]1CC2`, the IC50 (KB) was greater than 80 µM, the IC50 (MCF7) was 52.2 µM and the IC50 (HeLa) was 62.4 µM. For the same compound, the IC50 (MKN-28) was 64.3 µM.
`C[C@@]12CCC[C@H]1[C@@H]1/C(=N\O)C=C3C=CCC[C@]3(C)[C@H]1CC2` showed an IC50 (KB) of 28.5 µM, an IC50 (MCF7) of 19.8 µM and an IC50 (HeLa) of 22.2 µM. It also gave an IC50 (MKN-28) of 36.1 µM.
`COc1cccc2c1C(=O)c1c(O)c3c(c(O)c1C2=O)C[C@@](O)(C(=O)CO)C[C@@H]3O[C@H]1C[C@H](N)[C@H](O)[C@H](C)O1` [DOXORUBICIN] gave an IC50 (KB) of 0.028 µM and an IC50 (MKN-28) of 0.22 µM.
